What is called IC50 is the concentration that inhibits the measured activity by half.

This note sets out measurements from the Kinase Knowledgebase extract (Sharma et al. 2016).

Assay [1] addresses MAPK14 (UniProt Q16539). As to the kind of experiment: MAPK14 Binding Inhibition.
Assay [2] deals with MAPK14 (UniProt Q16539). In words: MAPK14 Kinase Inhibition.
Sequence of MAPK14 (Q16539 whole entry, looked up): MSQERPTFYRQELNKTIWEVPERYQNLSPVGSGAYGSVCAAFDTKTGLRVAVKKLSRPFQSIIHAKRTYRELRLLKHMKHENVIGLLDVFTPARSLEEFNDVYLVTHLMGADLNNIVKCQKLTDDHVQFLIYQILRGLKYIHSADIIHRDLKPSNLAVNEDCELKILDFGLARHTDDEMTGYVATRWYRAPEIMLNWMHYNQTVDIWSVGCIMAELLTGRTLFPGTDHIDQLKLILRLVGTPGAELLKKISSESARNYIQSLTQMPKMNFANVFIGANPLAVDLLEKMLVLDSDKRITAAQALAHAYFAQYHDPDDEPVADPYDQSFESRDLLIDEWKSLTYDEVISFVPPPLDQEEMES

`CN1CCC(n2cnc(-c3ccc(F)cc3)c2-c2ccnc(NCc3cccc4ccccc34)n2)CC1` registered an inhibition at MAPK14 [1] of under 50 µM.

Turning to `O=C1CCC(n2cnc(-c3ccc(F)cc3)c2-c2ccnc(Nc3ccccc3)n2)CC1`, the inhibition at MAPK14 [1] was under 50 µM.

Turning to `CN1CCC(n2cnc(-c3ccc(F)cc3)c2-c2ccnc(NC3CCN(Cc4ccccc4)CC3)n2)CC1`, the inhibition on MAPK14 [1] was under 50 µM.

For `CC1(C)CC(n2cnc(-c3ccc(F)cc3)c2-c2ccnc(Nc3ccccc3)n2)CC(C)(C)N1`, the inhibition at MAPK14 [1] is under 50 µM.

With `COc1cccc(Nc2nccc(-c3c(-c4ccc(F)cc4)ncn3C3CCNCC3)n2)c1`, the IC50 against MAPK14 [2] was under 50 µM.

Regarding `CCOCCCNc1nccc(-c2c(-c3ccc(F)cc3)ncn2C2CCNCC2)n1`, the inhibition at MAPK14 [1] is under 50 µM.

On MAPK14 [1], `CCOC(=O)N1CCC(Nc2nccc(-c3c(-c4ccc(F)cc4)ncn3C3CCN(C)CC3)n2)CC1` came in with an inhibition of under 50 µM.

`C[S+]([O-])c1ccc(-c2ncn(C3CCNCC3)c2-c2ccnc(Nc3ccccc3)n2)cc1` (configuration not stated): the 50% inhibitory concentration (IC50) against MAPK14 [2] was under 50 µM.

Turning to `Fc1ccc(-c2ncn(C3CCNCC3)c2-c2ccnc(Nc3ccccc3)c2)cc1`, the inhibition on MAPK14 [1] was under 50 µM.

On MAPK14 [2], `CCOC(=O)N1CCC(n2cnc(-c3ccc(F)cc3)c2-c2ccnc(Nc3ccc(OCc4ccccc4)cc3)n2)CC1` yielded an IC50 of under 50 µM.

Turning to `CN1CCC(n2cnc(-c3ccc(F)cc3)c2-c2ccnc(NCc3cccc(Cl)c3)n2)CC1`, the inhibition at MAPK14 [1] was under 50 µM.

With `CN1CCC(n2cnc(-c3ccc(F)cc3)c2-c2ccnc(NCCO)n2)CC1`, the inhibition on MAPK14 [1] was under 50 µM.

As for `Fc1ccc(-c2ncn(C3CCNCC3)c2-c2ccnc(Nc3ccccc3F)n2)cc1`, at MAPK14 [2], the 50% inhibitory concentration (IC50) is under 50 µM.

The molecule `Fc1ccc(Nc2nccc(-c3c(-c4ccc(F)cc4)ncn3C3CCNCC3)n2)cc1` registered an IC50 at MAPK14 [2] of under 50 µM.

Turning to `CSc1ccc(-c2ncn(C3CCNCC3)c2-c2ccnc(Nc3ccccc3)n2)cc1`, the concentration for half-maximal inhibition (IC50) on MAPK14 [2] was under 50 µM.

`Fc1ccc(-c2ncn(C3CCNCC3)c2-c2ccnc(Nc3cccc(F)c3)n2)cc1`: the half-inhibitory concentration (IC50) at MAPK14 [2] was under 50 µM.

`Fc1ccc(-c2ncn(C3CCNCC3)c2-c2ccnc(Nc3ccc(F)c(F)c3)n2)cc1` gave an IC50 on MAPK14 [2] of under 50 µM.

Regarding `CN1CCC(n2cnc(-c3ccc(F)cc3)c2-c2ccnc(NCCc3c[nH]c4ccc(Cl)cc34)n2)CC1`, on MAPK14 [1], the inhibition is under 50 µM.

As for `COc1ccc(Nc2nccc(-c3c(-c4ccc(F)cc4)ncn3C3CCNCC3)n2)cc1`, the half-maximal inhibitory concentration (IC50) against MAPK14 [2] was under 50 µM.

With `CCOC(=O)N1CCC(n2cnc(-c3ccc(F)cc3)c2-c2ccnc(Nc3cccc(OCc4ccccc4)c3)n2)CC1`, the IC50 on MAPK14 [2] is under 50 µM.

With `CN1CCC(n2cnc(-c3ccc(F)cc3)c2-c2ccnc(NC3CCNCC3)n2)CC1`, at MAPK14 [1], the inhibition is under 50 µM.

Turning to `CC1(C)CC(n2cnc(-c3ccc(F)cc3)c2-c2ccnc(NCCO)n2)CC(C)(C)N1`, on MAPK14 [1], the inhibition was under 50 µM.

For the molecule `CN1CCC(n2cnc(-c3ccc(F)cc3)c2-c2ccnc(NC3CC(C)(C)NC(C)(C)C3)n2)CC1`, the inhibition at MAPK14 [1] was under 50 µM.

Take `Fc1ccc(-c2ncn(C3CCNCC3)c2-c2ccnc(Nc3cccc(C(F)(F)F)c3)n2)cc1`: the half-maximal inhibitory concentration (IC50) on MAPK14 [2] was under 50 µM.

Take `Fc1ccc(-c2ncn(C3CCNCC3)c2-c2ccnc(Nc3cccc(Br)c3)n2)cc1`: on MAPK14 [1], the inhibition was under 50 µM.

On MAPK14 [1], `CN1CCC(n2cnc(-c3ccc(F)cc3)c2-c2ccnc(NCCCN3CCOCC3)n2)CC1` showed an inhibition of under 50 µM.

At MAPK14 [2], `COc1ccccc1Nc1nccc(-c2c(-c3ccc(F)cc3)ncn2C2CCNCC2)n1` came in with a concentration for half-maximal inhibition (IC50) of under 50 µM.

`Oc1ccc(Nc2nccc(-c3c(-c4ccc(F)cc4)ncn3C3CCNCC3)n2)cc1`: the half-maximal inhibitory concentration (IC50) at MAPK14 [2] is under 50 µM.

Molecule `NCCNc1nccc(-c2c(-c3ccc(F)cc3)ncn2C2CCNCC2)n1` came in with an inhibition at MAPK14 [1] of under 50 µM.

With `Fc1ccc(-c2ncn(C3CCNCC3)c2-c2ccnc(NCCCn3ccnc3)n2)cc1`, the inhibition at MAPK14 [1] was under 50 µM.

The molecule `Fc1ccc(-c2ncn(C3CCNCC3)c2-c2ccnc(Nc3ccccc3)n2)cc1` had an inhibition on MAPK14 [1] of under 50 µM.

Consider `CN1CCC(n2cnc(-c3ccc(F)cc3)c2-c2ccnc(NCc3ccccc3)n2)CC1`, for which the inhibition on MAPK14 [1] is under 50 µM.

On to `O[C@H]1CC[C@H](n2cnc(-c3ccc(F)cc3)c2-c2ccnc(Nc3ccccc3)n2)CC1`, for which, at MAPK14 [1], the inhibition was under 50 µM.

For `CN1CCC(n2cnc(-c3ccc(F)cc3)c2-c2ccnc(NCc3cccc4c3OCO4)n2)CC1`, at MAPK14 [1], the inhibition was under 50 µM.

Regarding `CN1CCC(n2cnc(-c3ccc(F)cc3)c2-c2ccnc(NC3CCSCC3)n2)CC1`, at MAPK14 [1], the inhibition was under 50 µM.

On to `CN1CCC(n2cnc(-c3ccc(F)cc3)c2-c2ccnc(Nc3ccccc3)n2)CC1`, for which the inhibition on MAPK14 [1] is under 50 µM.

With `Oc1cccc(Nc2nccc(-c3c(-c4ccc(F)cc4)ncn3C3CCNCC3)n2)c1`, the half-maximal inhibitory concentration (IC50) at MAPK14 [2] is under 50 µM.
